Experiments:
Assay in all cases: relative viability (nuclei count vs DMSO), 5 days (fraction); higher = more cells survive
NCI-H838 = system: NCI-H838
Summary of the method: (§1)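 Values are medians from duplicate plates. Each reflects relative viability, defined as the nuclei count of treated wells over that of vehicle wells. Lung cancer cell lines in 1536-well plates were pin-tool dosed one day after seeding with one drug alone or with a fixed anchor-drug dose plus five library-drug doses (not always all listed) in √10 steps, then fixed, stained and imaged at 4× after 5 days.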

NCI-H1666 = system: NCI-H1666
Summary of the method: as §1

HCC-44 = system: HCC-44
Summary of the method: as §1

COR-L23 = system: COR-L23
Summary of the method: as §1

NCI-H1792 = system: NCI-H1792
Summary of the method: as §1

NCI-H1437 = system: NCI-H1437
Summary of the method: as §1

NCI-H650 = system: NCI-H650
Summary of the method: as §1

HCC-15 = system: HCC-15
Summary of the method: as §1

BEN = system: BEN
Summary of the method: as §1

A-427 = system: A-427
Summary of the method: as §1

EKVX = system: EKVX
Summary of the method: as §1

NCI-H23 = system: NCI-H23
Summary of the method: as §1

SK-MES-1 = system: SK-MES-1
Summary of the method: as §1

NCI-H441 = system: NCI-H441
Summary of the method: as §1

HARA = system: HARA
Summary of the method: as §1

HCC-827 = system: HCC-827
Summary of the method: as §1

NCI-H596 = system: NCI-H596
Summary of the method: as §1

NCI-H358 = system: NCI-H358
Summary of the method: as §1

NCI-H1650 = system: NCI-H1650
Summary of the method: as §1

NCI-H1975 = system: NCI-H1975
Summary of the method: as §1

201T = system: 201T
Summary of the method: as §1

CCN(CC)CCCCNc1ncc2cc(-c3cc(OC)cc(OC)c3)c(NC(=O)NC(C)(C)C)nc2n1 + CS(=O)(=O)N1CCN(Cc2cc3nc(-c4cccc5[nH]ncc45)nc(N4CCOCC4)c3s2)CC1 [Pictilisib] (partner 1 µM)
relative viability (NCI-H838; first compound 0.01 µM): 0.441 | relative viability (NCI-H838; first compound 0.03162 µM): 0.4 | relative viability (NCI-H838; first compound 0.1 µM): 0.395 | relative viability (NCI-H838; first compound 0.3162 µM): 0.383 | relative viability (NCI-H838; first compound 1 µM): 0.244 | relative viability (NCI-H1666; first compound 0.01 µM): 0.363 | relative viability (NCI-H1666; first compound 0.03162 µM): 0.405 | relative viability (NCI-H1666; first compound 0.1 µM): 0.484 | relative viability (NCI-H1666; first compound 0.3162 µM): 0.595 | relative viability (NCI-H1666; first compound 1 µM): 0.367 | relative viability (HCC-44; first compound 0.01 µM): 0.687 | relative viability (HCC-44; first compound 0.03162 µM): 0.746 | relative viability (HCC-44; first compound 0.1 µM): 0.603 | relative viability (HCC-44; first compound 0.3162 µM): 0.635 | relative viability (HCC-44; first compound 1 µM): 0.451 | relative viability (COR-L23; first compound 0.01 µM): 0.781 | relative viability (COR-L23; first compound 0.03162 µM): 0.955 | relative viability (COR-L23; first compound 0.1 µM): 0.824 | relative viability (COR-L23; first compound 0.3162 µM): 0.809 | relative viability (COR-L23; first compound 1 µM): 0.8 | relative viability (NCI-H1792; first compound 0.01 µM): 0.249 | relative viability (NCI-H1792; first compound 0.03162 µM): 0.282 | relative viability (NCI-H1792; first compound 0.1 µM): 0.241 | relative viability (NCI-H1792; first compound 0.3162 µM): 0.265 | relative viability (NCI-H1792; first compound 1 µM): 0.225 | relative viability (NCI-H1437; first compound 0.01 µM): 0.544 | relative viability (NCI-H1437; first compound 0.03162 µM): 0.482 | relative viability (NCI-H1437; first compound 0.1 µM): 0.424 | relative viability (NCI-H1437; first compound 0.3162 µM): 0.395 | relative viability (NCI-H1437; first compound 1 µM): 0.392 | relative viability (NCI-H650; first compound 0.01 µM): 0.874 | relative viability (NCI-H650; first compound 0.03162 µM): 0.889 | relative viability (NCI-H650; first compound 0.1 µM): 0.973 | relative viability (NCI-H650; first compound 0.3162 µM): 0.998 | relative viability (NCI-H650; first compound 1 µM): 0.925 | relative viability (HCC-15; first compound 0.01 µM): 0.813 | relative viability (HCC-15; first compound 0.03162 µM): 0.813 | relative viability (HCC-15; first compound 0.1 µM): 0.766 | relative viability (HCC-15; first compound 0.3162 µM): 0.929 | relative viability (HCC-15; first compound 1 µM): 0.715 | relative viability (BEN; first compound 0.01 µM): 0.587 | relative viability (BEN; first compound 0.03162 µM): 0.516 | relative viability (BEN; first compound 0.1 µM): 0.525 | relative viability (BEN; first compound 0.3162 µM): 0.59 | relative viability (BEN; first compound 1 µM): 0.485 | relative viability (A-427; first compound 0.01 µM): 0.704 | relative viability (A-427; first compound 0.03162 µM): 0.657 | relative viability (A-427; first compound 0.1 µM): 0.769 | relative viability (A-427; first compound 0.3162 µM): 0.671 | relative viability (A-427; first compound 1 µM): 0.353 | relative viability (EKVX; first compound 0.01 µM): 0.437 | relative viability (EKVX; first compound 0.03162 µM): 0.455 | relative viability (EKVX; first compound 0.1 µM): 0.42 | relative viability (EKVX; first compound 0.3162 µM): 0.407 | relative viability (EKVX; first compound 1 µM): 0.465 | relative viability (NCI-H23; first compound 0.01 µM): 0.414 | relative viability (NCI-H23; first compound 0.03162 µM): 0.411 | relative viability (NCI-H23; first compound 0.1 µM): 0.463 | relative viability (NCI-H23; first compound 0.3162 µM): 0.37 | relative viability (NCI-H23; first compound 1 µM): 0.435 | relative viability (SK-MES-1; first compound 0.01 µM): 0.307 | relative viability (SK-MES-1; first compound 0.03162 µM): 0.334 | relative viability (SK-MES-1; first compound 0.1 µM): 0.406 | relative viability (SK-MES-1; first compound 0.3162 µM): 0.425 | relative viability (SK-MES-1; first compound 1 µM): 0.348 | relative viability (NCI-H441; first compound 0.01 µM): 0.48 | relative viability (NCI-H441; first compound 0.03162 µM): 0.554 | relative viability (NCI-H441; first compound 0.1 µM): 0.412 | relative viability (NCI-H441; first compound 0.3162 µM): 0.53 | relative viability (NCI-H441; first compound 1 µM): 0.407 | relative viability (HARA; first compound 0.01 µM): 0.421 | relative viability (HARA; first compound 0.03162 µM): 0.356 | relative viability (HARA; first compound 0.1 µM): 0.307 | relative viability (HARA; first compound 0.3162 µM): 0.485 | relative viability (HARA; first compound 1 µM): 0.176 | relative viability (HCC-827; first compound 0.01 µM): 1.03 | relative viability (HCC-827; first compound 0.03162 µM): 0.992 | relative viability (HCC-827; first compound 0.1 µM): 0.886 | relative viability (HCC-827; first compound 0.3162 µM): 1.06 | relative viability (HCC-827; first compound 1 µM): 1.02 | relative viability (NCI-H596; first compound 0.01 µM): 0.422 | relative viability (NCI-H596; first compound 0.03162 µM): 0.418 | relative viability (NCI-H596; first compound 0.1 µM): 0.369 | relative viability (NCI-H596; first compound 0.3162 µM): 0.378 | relative viability (NCI-H596; first compound 1 µM): 0.35 | relative viability (NCI-H358; first compound 0.01 µM): 0.353 | relative viability (NCI-H358; first compound 0.03162 µM): 0.282 | relative viability (NCI-H358; first compound 0.1 µM): 0.38 | relative viability (NCI-H358; first compound 0.3162 µM): 0.35 | relative viability (NCI-H358; first compound 1 µM): 0.3 | relative viability (NCI-H1650; first compound 0.01 µM): 0.542 | relative viability (NCI-H1650; first compound 0.03162 µM): 0.464 | relative viability (NCI-H1650; first compound 0.1 µM): 0.423 | relative viability (NCI-H1650; first compound 0.3162 µM): 0.477 | relative viability (NCI-H1650; first compound 1 µM): 0.22 | relative viability (NCI-H1975; first compound 0.01 µM): 0.28 | relative viability (NCI-H1975; first compound 0.03162 µM): 0.277 | relative viability (NCI-H1975; first compound 0.1 µM): 0.311 | relative viability (NCI-H1975; first compound 0.3162 µM): 0.322 | relative viability (NCI-H1975; first compound 1 µM): 0.255 | relative viability (201T; first compound 0.01 µM): 0.741 | relative viability (201T; first compound 0.03162 µM): 0.663 | relative viability (201T; first compound 0.1 µM): 0.775 | relative viability (201T; first compound 0.3162 µM): 0.677 | relative viability (201T; first compound 1 µM): 0.573
